ChEMBL document CHEMBL2331281, “Isolation of ciliatamide D from a marine sponge Stelletta sp. and a reinvestigation of the configuration of ciliatamide A” (J Nat Prod, 2013)
Calls of active or inactive are those of the source. The calls are words filed in the database; no cut-off is given here.

Experiments:
HeLa = assay: Cytotoxicity against human HeLa cells at 50 ug/ml after 72 hrs by MTT assay; format: functional, cell-based
[1] = target: Cathepsin B (Homo sapiens) (UniProt P07858); assay: Inhibition of cathepsin B (unknown origin) using Z-Arg-Arg-AMC as substrate at 50 ug/ml after 30 mins by fluorescence assay

inhibition [1]: inactive
Compound: C=CCCCCCCCC(=O)N(C)[C@@H](CC[S+](C)[O-])C(=O)N[C@H]1CCCCNC1=O (mixture of isomers)
Activity (HeLa): inactive
